Source: patent publication US20120100188A1, “SOLID STATE FORMS OF PALIPERIDONE SALTS AND PROCESS FOR THE PREPARATION THEREOF” (Actavis Group PTC ehf, priority 2009, published 2012)

How the values were obtained:
Type in all cases: physicochemical
[1] = Solubility test of paliperidone and its salts in water (100 mg of sample); details: 100 mg of sample used
Description: (§1) The solubility data of paliperidone and solid state forms of paliperidone salts is furnished in the below table. The 100 mg of sample was used for solubility test.

[2] = Solubility test of paliperidone and its salts in methanol (100 mg of sample); details: 100 mg of sample used
Description: as §1

[3] = Stability of the solid state form (as stated, no test data); details: room temperature, enhanced temperature, relative high humidities, aqueous media
Text: In one embodiment, the process disclosed herein provides stable solid state forms of paliperidone salts. The term “stable solid state form” refers to stability of the solid state form under the standard temperature and humidity conditions of testing of pharmaceutical products, wherein the stability is indicated by preservation of the original polymorphic form.

Row | Compound | Solubility Water [1] | Solubility Methanol [2] | Stability of solid state form [3]
1 | Cc1nc2n(c(=O)c1CCN1CCC(c3noc4cc(F)ccc34)CC1)CCCC2O (racemic) [Paliperidone, (±)-3-[2-[4-(6-fluoro-1,2-benzisoxazol-3-yl)-1-piperidinyl]ethyl]-6,7,8,9-tetrahydro-9-hydroxy-2-methyl-4H-pyrido[1,2-a]pyrimidin-4-one] | Insoluble | Insoluble | 
2 | Cc1nc2n(c(=O)c1CCN1CCC(c3noc4cc(F)ccc34)CC1)CCCC2O.O=C(O)/C=C/C(=O)O (stereo not shown) |  | Insoluble | stable at room temperature, enhanced temperature, at relative high humidities, and in aqueous media
